In ChEMBL document CHEMBL1201862, “PubChem BioAssay data set” (2004):
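Method: 48-hour compound exposure of cells in 96-well plates, five concentrations, linear interpolation of endpoints. GI50 is the concentration that inhibits growth by half.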 Active and inactive are the calls of the source. Cut-off read from the data, not from the text of the source: active = GI50 up to about 1.1 µM and inactive = higher.

Key:
Test in all cases: DTP human tumour cell line panel, 48 h
A498 = test system: A498
MDA-MB-435 = test system: MDA-MB-435
CCRF-CEM = test system: CCRF-CEM
K562 = test system: K562
ACHN = test system: ACHN
KM12 = test system: KM12
HOP-62 = test system: HOP-62
NCI-H226 = test system: NCI-H226
UACC-257 = test system: UACC-257
SNB-19 = test system: SNB-19
Hs-578T = test system: Hs-578T
M14 = test system: M14
SK-OV-3 = test system: SK-OV-3
OVCAR-4 = test system: OVCAR-4
SW-620 = test system: SW-620
HL-60 = test system: HL-60
HCC 2998 = test system: HCC 2998
NCI-H522 = test system: NCI-H522

Measured: GI50

O=C1/C(=C/c2ccccc2)NC(=S)N1CN1CCCCC1
inactive: A498 99.5 µM | MDA-MB-435 > 100 µM | CCRF-CEM > 100 µM | K562 > 100 µM | ACHN > 100 µM | KM12 > 100 µM | HOP-62 > 100 µM | NCI-H226 > 100 µM | UACC-257 16.3 µM | SNB-19 > 100 µM | Hs-578T > 100 µM | M14 > 100 µM | SK-OV-3 > 100 µM | OVCAR-4 15 µM | SW-620 > 100 µM

Nc1ccc2c3c1cccc3c(=O)n1c3ccc(Cc4ccc5c(c4)nc4c6ccc(N)c7cccc(c(=O)n54)c76)cc3nc21
inactive: A498 > 100 µM | MDA-MB-435 > 100 µM | CCRF-CEM > 100 µM | K562 > 100 µM | HL-60 > 100 µM | ACHN > 100 µM | KM12 > 100 µM | HOP-62 > 100 µM | NCI-H226 > 100 µM | UACC-257 > 100 µM | SNB-19 > 100 µM | HCC 2998 > 100 µM | M14 > 100 µM | SK-OV-3 > 100 µM | OVCAR-4 > 100 µM | NCI-H522 > 100 µM | SW-620 > 100 µM

c1cncc(-c2ncc3cccnc3n2)c1
inactive: A498 > 100 µM | CCRF-CEM > 100 µM | K562 > 100 µM | HL-60 > 100 µM | ACHN > 100 µM | KM12 > 100 µM | HOP-62 > 100 µM | NCI-H226 > 100 µM | UACC-257 > 100 µM | SNB-19 > 100 µM | HCC 2998 > 100 µM | Hs-578T > 100 µM | SK-OV-3 > 100 µM | OVCAR-4 > 100 µM | NCI-H522 > 100 µM | SW-620 > 100 µM

CC(C)(C)C1CCC2c3c([nH]c4ccccc34)C3C(=O)N(c4cc(Br)cc(Br)c4)C(=O)C3C2C1 (stereo not drawn)
inactive: A498 19.7 µM | MDA-MB-435 19.7 µM | CCRF-CEM 5.79 µM | HL-60 2.55 µM | ACHN 20 µM | KM12 12.6 µM | HOP-62 18.7 µM | NCI-H226 21.9 µM | UACC-257 > 100 µM | HCC 2998 5.05 µM | Hs-578T 7 µM | M14 25.4 µM | SK-OV-3 61.1 µM | OVCAR-4 10.1 µM | NCI-H522 20.9 µM | SW-620 51.2 µM

COC(=O)c1csc(-c2csc(CCNC(=O)OC(C)(C)C)n2)n1
inactive: A498 26.1 µM | MDA-MB-435 > 100 µM | CCRF-CEM 43.5 µM | K562 > 100 µM | HL-60 > 100 µM | ACHN > 100 µM | KM12 > 100 µM | HOP-62 > 100 µM | NCI-H226 > 100 µM | UACC-257 > 100 µM | SNB-19 > 100 µM | HCC 2998 > 100 µM | Hs-578T > 100 µM | M14 > 100 µM | SK-OV-3 > 100 µM | SW-620 > 100 µM

CC(=O)NC(CC(C)C)C(=O)NC(CC(C)C)C(=O)NC(C=O)CCCNC(=N)N (stereo not drawn)
inactive: A498 > 100 µM | MDA-MB-435 > 100 µM | CCRF-CEM > 100 µM | K562 > 100 µM | ACHN > 100 µM | KM12 > 100 µM | HOP-62 > 100 µM | NCI-H226 42.3 µM | UACC-257 > 100 µM | SNB-19 > 100 µM | HCC 2998 > 100 µM | M14 > 100 µM | SK-OV-3 > 100 µM | OVCAR-4 > 100 µM | NCI-H522 > 100 µM | SW-620 > 100 µM

C[C@H](c1ccccc1)N1C(=O)[C@@H](O)[C@H]1[C@H](CO)OCc1ccccc1
inactive: A498 20 µM | MDA-MB-435 > 100 µM | CCRF-CEM > 100 µM | K562 > 100 µM | ACHN > 100 µM | KM12 > 100 µM | HOP-62 > 100 µM | NCI-H226 > 100 µM | UACC-257 > 100 µM | SNB-19 > 100 µM | Hs-578T > 100 µM | M14 > 100 µM | SK-OV-3 > 100 µM | OVCAR-4 > 100 µM | SW-620 > 100 µM

N#Cc1c(-c2ccc(Cl)cc2)c2c([nH]c1=O)-c1ccccc1SC2
inactive: A498 > 100 µM | MDA-MB-435 41 µM | CCRF-CEM 26.3 µM | K562 32.9 µM | HL-60 21 µM | KM12 63.7 µM | HOP-62 32.1 µM | NCI-H226 38.6 µM | UACC-257 > 100 µM | SNB-19 91.8 µM | Hs-578T 67.9 µM | M14 > 100 µM | SK-OV-3 32.7 µM | OVCAR-4 38.6 µM | SW-620 > 100 µM

CC(C)C1N(C)c2ccc(Cl)cc2[C@H]2c3ccccc3CCN12 (stereo partly drawn)
inactive: A498 78 µM | MDA-MB-435 23 µM | CCRF-CEM 97.9 µM | K562 71.8 µM | HL-60 27.7 µM | ACHN 82.2 µM | KM12 50.9 µM | HOP-62 > 100 µM | NCI-H226 14.3 µM | UACC-257 30.4 µM | SNB-19 > 100 µM | Hs-578T 25.8 µM | M14 55.1 µM | SK-OV-3 > 100 µM | OVCAR-4 69.2 µM | NCI-H522 21.9 µM | SW-620 97.3 µM
